We go through one substance from paper PMC6751662, “Pharmacological and functional similarities of the human neuropeptide Y system in C. elegans challenges phylogenetic views on the FLP/NPR system” (Cell Communication and Signaling : CCS, 2019).

What all share (assay type): cell-based, C. elegans
One assay addresses T1, NPR-1 (Caenorhabditis elegans, UniProt Q18534).
T1 sequence (Q18534 1-457): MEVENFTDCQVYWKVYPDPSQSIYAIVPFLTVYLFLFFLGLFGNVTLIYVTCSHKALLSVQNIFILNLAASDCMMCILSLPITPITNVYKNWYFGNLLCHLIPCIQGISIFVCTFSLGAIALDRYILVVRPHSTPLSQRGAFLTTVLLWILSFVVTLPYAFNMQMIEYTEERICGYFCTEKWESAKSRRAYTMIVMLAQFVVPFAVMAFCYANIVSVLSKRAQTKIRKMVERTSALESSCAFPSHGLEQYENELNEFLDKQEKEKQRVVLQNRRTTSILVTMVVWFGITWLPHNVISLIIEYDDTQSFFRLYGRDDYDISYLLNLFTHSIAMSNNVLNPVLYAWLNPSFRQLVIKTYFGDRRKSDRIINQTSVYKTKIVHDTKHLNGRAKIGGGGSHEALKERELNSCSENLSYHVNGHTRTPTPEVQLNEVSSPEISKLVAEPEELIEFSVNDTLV
Description: IP accumulation assay, co-transfected Gα16, NPR-1. The conditions noted are these: 1 h, HBSS + 20 mM LiCl, HEK293 receptor + Gα16, HTRF IP-One, mean of >=3 independent experiments. The arrangement: expressed in transfected cells; host or cells: HEK293. The procedure:
(§1) For measuring IP accumulation, HEK293 cells grown to 70–80% confluency in 6-well plates were transiently co-transfected using Metafectene Pro (2.5 μl/μg DNA; Biontex) with plasmids containing receptor and/or mock (empty pcDNA3.1) (for endogenous Gq-coupling) using 4 μg total DNA in a ratio of 3:1 following the manufacturer’s instructions. For testing Gα16- and GαΔ6qi4myr-coupling, plasmids encoding the corresponding Gα protein were co-transfected instead of mock. Gα16 is naturally promiscuous and stimulates the phospholipase C (PLC) pathway leading to IP production, while the exchange of the C-terminal four amino acids of Gαq for the corresponding residues of Gαi1 in the chimeric GαΔ6qi4myr confers the ability to couple to Gi/o protein-preferring receptors but still stimulate PLC, thus specifically redirecting downstream cellular signaling. 16 h post transfection, the cells were seeded into white 384-well plates at a density of 20,000 cells/well. Media was removed 24 h later and the cells were incubated with the indicated concentration of peptides for 1 h in HBSS + 20 mM LiCl. IP accumulation was measured with the HTRF-based IP-One Gq kit (Cisbio) on a microplate reader (Tecan Spark).
(§2) For in vitro activation, data is presented as mean ± SEM of at least three independent experiments conducted in technical triplicate. […]
For orientation: TR-FRET usually uses a lanthanide donor and a delayed reading to cut background.

The next assay concerns NPR-6. In words: IP accumulation assay, endogenous Gαq + mock, NPR-6. The conditions noted are these: 1 h, HBSS + 20 mM LiCl, HEK293 receptor + empty vector, HTRF IP-One, mean of >=3 independent experiments. The procedure: as §1, §2
The target in the next assay is T2, NPR-11 (Caenorhabditis elegans, UniProt Q18179).
T2 construct: expressed in transfected cells; host or cells: HEK293, transient
T2 sequence (Q18179 1-402): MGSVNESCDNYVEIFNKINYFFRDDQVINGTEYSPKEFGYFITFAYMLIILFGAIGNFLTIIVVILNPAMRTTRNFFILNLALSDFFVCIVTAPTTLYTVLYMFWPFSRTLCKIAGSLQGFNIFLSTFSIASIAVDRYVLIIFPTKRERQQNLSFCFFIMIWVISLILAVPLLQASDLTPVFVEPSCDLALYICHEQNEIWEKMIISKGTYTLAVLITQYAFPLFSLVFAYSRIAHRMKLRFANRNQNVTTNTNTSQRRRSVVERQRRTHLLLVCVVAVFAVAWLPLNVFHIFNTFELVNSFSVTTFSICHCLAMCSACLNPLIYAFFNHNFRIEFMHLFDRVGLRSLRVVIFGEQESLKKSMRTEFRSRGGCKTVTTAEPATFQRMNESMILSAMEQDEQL
Description: IP accumulation assay, co-transfected Gα16, NPR-11. As to conditions: 1 h, HBSS + 20 mM LiCl, HEK293 receptor + Gα16, HTRF IP-One, mean of >=3 independent experiments. The procedure:
as §1, §2

Where [1] appears, read: 0.1 nM peptide (so in the source).

Regarding “APKPKFIRF-NH2 [FLP-5-1, C. elegans FMRFamide-like peptide, C-terminally amidated, synthesized by SPPS]”, the results for the “IP assay endog. Gαq + Gα16, NPR-1” value on NPR-1 (setting [1]) and at NPR-1 (10 µM peptide) were 0.90 x-fold of basal and 0.81 x-fold of basal, respectively. Further, the results for the “IP assay endog. Gαq + mock, NPR-6” value in the assay with NPR-6 (setting [1]) and with NPR-6 (10 µM peptide) were 0.92 x-fold of basal and 0.95 x-fold of basal, respectively. Moreover, the “IP assay endog. Gαq + Gα16, NPR-11” value on NPR-11 (setting [1]) is listed as 1.04 x-fold of basal; at NPR-11 (10 µM peptide), 0.84 x-fold of basal.
